Read-outs that look alike come from different tables or passages of the source. Starred links: 1 amine or outer side, 2 acyl side, 3 side chain; linkers in the order of their positions; H or OH if unused. Non-standard residues stand in square brackets, D forms with d. Residues, ends and D or L forms follow the SMILES beside them. Groups on a side chain read outwards from the residue. No end group written: not given here. *: point of attachment. C18 diacid = O=C(O)CCCCCCCCCCCCCCCCC(=O)*; αMePhe(2-F) = C[C@](N)(Cc1ccccc1F)C(=O)O; γGlu = O=C(O)[C@H](CCC(=O)[*:2])N[*:1]; αMe4Pal = C[C@](N)(Cc1ccncc1)C(=O)O; αMeY = C[C@](N)(Cc1ccc(O)cc1)C(=O)O; αMeF = C[C@](N)(Cc1ccccc1)C(=O)O; 4Pal = N[C@@H](Cc1ccncc1)C(=O)O; αMeL = CC(C)C[C@](C)(N)C(=O)O; αMeS = C[C@](N)(CO)C(=O)O; Orn = NCCC[C@H](N)C(=O)O; AEEA = NCCOCCOCC(=O)O; Aib = CC(C)(N)C(=O)O

What all share (type): cell-based
Test [1] concerns the target T1, hGIPR (Homo sapiens, UniProt P48546).
T1 sequence (P48546 22-466): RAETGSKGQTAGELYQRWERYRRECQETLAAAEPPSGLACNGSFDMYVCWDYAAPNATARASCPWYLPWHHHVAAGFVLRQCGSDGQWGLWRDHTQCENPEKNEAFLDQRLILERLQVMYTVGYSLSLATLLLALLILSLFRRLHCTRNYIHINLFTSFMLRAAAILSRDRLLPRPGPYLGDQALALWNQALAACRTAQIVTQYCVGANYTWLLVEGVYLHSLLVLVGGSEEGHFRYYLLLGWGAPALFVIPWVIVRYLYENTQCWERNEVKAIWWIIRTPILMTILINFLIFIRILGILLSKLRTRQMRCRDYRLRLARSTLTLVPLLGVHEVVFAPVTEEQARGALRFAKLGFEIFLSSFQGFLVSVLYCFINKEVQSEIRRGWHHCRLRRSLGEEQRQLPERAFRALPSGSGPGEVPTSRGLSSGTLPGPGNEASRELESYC
In words: Functional cAMP activity in the presence of 1% HSA. Conditions: read-out: cAMP Rel EC50, hGIPR.

Test [2] deals with T2, hGLP-1R (Homo sapiens, UniProt P43220). The experiment in a line: Functional cAMP activity in the presence of 1% HSA. Conditions: read-out: cAMP Rel EC50, hGLP-1R.
Another test deals with human GcgR (Homo sapiens, UniProt P47871). In words: Functional cAMP activity in the presence of 1% HSA. As to conditions: read-out: cAMP Rel EC50, hGcgR.
Test [3] deals with T1, hGIPR. The experiment in a line: Functional cAMP activation in the presence of 0.1% casein (no HSA). Conditions: read-out: Relative cAMP EC50, hGIPR.
Test [4] has as its target T2, hGLP-1R. The description is as above. As to conditions: read-out: Relative cAMP EC50, hGLP-1R.
The next test concerns the target hGcgR (Homo sapiens, UniProt P47871). The description is as above. As to conditions: read-out: Relative cAMP EC50, hGcgR.
Where [5] appears, read: in the presence of 0.1% casein (no HSA), geometric mean.
The mark [6] stands for this setting: HEK-293 clonal cell line, in the presence of 1% HSA, geometric mean of relative EC50.
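For Relative cAMP EC50, hGIPR in this document: intracellular cAMP rise after 30 min at 37 °C read by HTRF against a standard curve, scaled between buffer alone (0%) and top control ligand concentration (100%), four-parameter fit.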
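For Relative cAMP EC50, hGLP-1R in this document: intracellular cAMP rise after 30 min at 37 °C read by HTRF, normalized between buffer only (0%) and maximal control ligand (100%), four-parameter variable-slope fit.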
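For Relative cAMP EC50, hGcgR in this document: intracellular cAMP rise after 30 min at 37 °C, read by HTRF against a cAMP standard curve, scaled from buffer only (0%) to maximal control ligand response (100%).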

T2 sequence (P43220 24-463): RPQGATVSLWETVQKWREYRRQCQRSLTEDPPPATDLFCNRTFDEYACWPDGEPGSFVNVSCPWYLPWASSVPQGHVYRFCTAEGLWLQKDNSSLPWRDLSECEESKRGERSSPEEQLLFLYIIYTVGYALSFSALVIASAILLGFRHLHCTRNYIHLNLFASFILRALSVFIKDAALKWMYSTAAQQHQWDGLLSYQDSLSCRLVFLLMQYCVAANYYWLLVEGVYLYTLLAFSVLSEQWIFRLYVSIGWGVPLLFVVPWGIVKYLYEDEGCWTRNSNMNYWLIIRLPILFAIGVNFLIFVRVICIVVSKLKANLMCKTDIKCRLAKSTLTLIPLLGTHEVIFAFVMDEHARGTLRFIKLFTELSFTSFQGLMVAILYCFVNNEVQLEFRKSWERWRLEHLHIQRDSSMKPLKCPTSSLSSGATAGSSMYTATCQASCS
Chain of hGcgR (P47871 26-477): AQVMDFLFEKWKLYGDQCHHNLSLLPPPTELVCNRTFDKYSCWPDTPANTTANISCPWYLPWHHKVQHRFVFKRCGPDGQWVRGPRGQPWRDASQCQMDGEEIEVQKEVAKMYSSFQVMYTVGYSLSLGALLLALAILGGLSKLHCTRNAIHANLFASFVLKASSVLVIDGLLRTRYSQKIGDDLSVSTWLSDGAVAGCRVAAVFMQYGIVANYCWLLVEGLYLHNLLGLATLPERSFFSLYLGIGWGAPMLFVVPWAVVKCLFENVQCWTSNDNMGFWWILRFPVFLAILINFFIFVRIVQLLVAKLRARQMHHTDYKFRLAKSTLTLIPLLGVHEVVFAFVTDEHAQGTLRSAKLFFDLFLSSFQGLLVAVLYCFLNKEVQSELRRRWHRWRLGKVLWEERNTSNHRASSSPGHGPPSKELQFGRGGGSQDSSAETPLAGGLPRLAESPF
Chain of human GcgR (P47871 26-477): as above

For the compound `CC[C@H](C)[C@H](NC(=O)[C@H](Cc1ccccc1)NC(=O)[C@H](CCCN)NC(=O)C(C)(C)NC(=O)[C@H](CCC(N)=O)NC(=O)[C@H](C)NC(=O)[C@H](CCCCNC(=O)COCCOCCNC(=O)CC[C@H](NC(=O)CCCCCCCCCCCCCCCCC(=O)O)C(=O)O)NC(=O)[C@H](CCCN)NC(=O)[C@H](CC(=O)O)NC(=O)[C@H](CC(C)C)NC(=O)[C@](C)(CC(C)C)NC(=O)[C@@H](NC(=O)[C@](C)(CO)NC(=O)[C@H](Cc1ccc(O)cc1)NC(=O)[C@H](CC(=O)O)NC(=O)[C@H](CO)NC(=O)[C@@H](NC(=O)[C@](C)(Cc1ccccc1)NC(=O)[C@@H](NC(=O)CNC(=O)[C@H](CCC(N)=O)NC(=O)C(C)(C)NC(=O)[C@@H](N)Cc1ccc(O)cc1)[C@@H](C)O)[C@@H](C)O)[C@@H](C)CC)C(=O)N[C@H](CCC(=O)O)C(=O)N[C@@H](Cc1ccc(O)cc1)C(=O)N[C@@H](CC(C)C)C(=O)N[C@@H](CC(C)C)C(=O)N[C@@H](CCC(=O)O)C(=O)NCC(=O)NCC(=O)N1CCC[C@H]1C(=O)N[C@@H](CO)C(=O)N[C@@H](CO)C(=O)NCC(=O)N[C@@H](CCC(=O)O)C(=O)N1CCC[C@H]1C(=O)N1CCC[C@H]1C(=O)N1CCC[C@H]1C(=O)N[C@@H](CCC(=O)O)C(N)=O` [Example 391] (H-Y[Aib]QGT[αMeF]TSDY[αMeS]I[αMeL]LD[Orn]K([AEEA-γGlu-C18 diacid])AQ[Aib][Orn]FI[dE]YLLEGGPSSGEPPPE-NH2), the EC50 at hGIPR [1] was determined as 11.5 nM; on hGLP-1R [2], 34.4 nM; at human GcgR, 808 nM; at hGIPR [3] it was 0.0298 nM; on hGLP-1R [4], 0.199 nM; on hGcgR, 3.04 nM.
With “H-Y[Aib]QGT[αMePhe(2-F)]TSD[4Pal]SILLDKK([γGlu-γGlu-C18 diacid])AQ[Aib]AFIEYLQEGGPSSGAPPPSGTE-NH2 [Example 553]”, the EC50 on hGIPR [1] was 2.97 nM; on hGLP-1R [2], 51 nM; on human GcgR it was 523 nM; at hGIPR [3], 0.0371 nM; on hGLP-1R [4] it was 0.398 nM; on hGcgR, 4.53 nM.
For the compound “H-Y[Aib]QGT[αMePhe(2-F)]TSD[4Pal][αMeS]I[αMeL]LD[Orn]K([AEEA-γGlu-γGlu-C18 diacid])AQ[αMe4Pal]EFI[dE][αMeY]LIEGGPSSGEPPPSGE-NH2 [Example 1177]”, the EC50 was 0.544 nM on hGIPR [1]; 43.6 nM on hGLP-1R [2]; 156 nM at human GcgR; 0.0114 nM on hGIPR [3] (setting [5]); 0.681 nM at hGLP-1R [4] (setting [5]); 4.23 nM on hGcgR (setting [5]).
Regarding “H-Y[Aib]QGT[αMePhe(2-F)]TSD[4Pal][αMeS]I[αMeL]LD[Orn]K([AEEA-γGlu-C18 diacid])AQ[αMe4Pal]EFI[dE][αMeY]LIEGGPSSGAPPPSGE-NH2 [Example 1140]”, the EC50 at hGIPR [1] is 0.869 nM; at hGLP-1R [2], 39.2 nM; on human GcgR, 228 nM; at hGIPR [3] (setting [5]), 0.00821 nM; on hGLP-1R [4] (setting [5]) it was 0.323 nM; on hGcgR (setting [5]) it was 1.56 nM.
Turning to “H-Y[Aib]QGTFTSD[4Pal]SQ[αMeL]LD[Orn]K([γGlu-γGlu-C18 diacid])AQ[αMe4Pal]QFIE[αMeY]LIEGGPSSGAPPPSGSEE-NH2 [Example 1046]”, the EC50 at hGIPR [1] was 85 nM; on hGLP-1R [2] it was 528 nM; on human GcgR, 1680 nM; at hGIPR [3] (setting [5]) it was 0.352 nM; at hGLP-1R [4] (setting [5]) it was 1.94 nM; on hGcgR (setting [5]) it was 10 nM.
On to “H-Y[Aib]QGTFTSD[4Pal]SQ[αMeL]LDKK([AEEA-γGlu-C18 diacid])AQ[αMe4Pal]AFIEYLIE[Aib]GPSSGAPPPSSS-NH2 [Example 848]”, for which the EC50 was determined as 20.2 nM at hGIPR [1]; 313 nM at hGLP-1R [2]; 615 nM on human GcgR; 0.148 nM at hGIPR [3] (setting [5]); 2.29 nM on hGLP-1R [4] (setting [5]); 3.22 nM on hGcgR (setting [5]).
For “H-Y[Aib]QGTFTSDFS[Orn][αMeL]LDKK([AEEA-AEEA-γGlu-C18 diacid])AQ[Aib]AFIEYLLE[dA]GPSSG[4Pal]PPPSGH-NH2 [Example 257]”, the half-maximal effective concentration (EC50) was 21 nM on hGIPR [1]; 388 nM on hGLP-1R [2]; 1210 nM at human GcgR; 0.135 nM on hGIPR [3] (setting [5]); 2.66 nM at hGLP-1R [4] (setting [5]); 7.36 nM at hGcgR (setting [5]).
For the compound “H-Y[Aib]QGTFTSD[4Pal]S[Orn][αMeL]LD[Orn]K([γGlu-γGlu-C18 diacid])AQ[αMe4Pal][Orn]FIE[αMeY]LLAGGPSSGAPPPSGSEE-NH2 [Example 997]”, the EC50 on hGIPR [1] (setting [6]) was 27.8 nM; at hGLP-1R [2] (setting [6]), 1880 nM; at human GcgR (setting [6]), 527 nM; on hGIPR [3] (setting [5]), 0.373 nM; at hGLP-1R [4] (setting [5]) it was 20.7 nM; on hGcgR (setting [5]), 5.01 nM.
On to `CC[C@H](C)[C@H](NC(=O)[C@H](Cc1ccccc1)NC(=O)[C@H](C)NC(=O)C(C)(C)NC(=O)[C@H](CCC(N)=O)NC(=O)[C@H](C)NC(=O)[C@H](CCCCNC(=O)COCCOCCNC(=O)CC[C@H](NC(=O)CCCCCCCCCCCCCCCCC(=O)O)C(=O)O)NC(=O)[C@H](CCCCN)NC(=O)[C@H](CC(=O)O)NC(=O)[C@H](CC(C)C)NC(=O)[C@H](CC(C)C)NC(=O)[C@@H](NC(=O)[C@H](CO)NC(=O)[C@H](Cc1ccc(O)cc1)NC(=O)[C@H](CC(=O)O)NC(=O)[C@H](CO)NC(=O)[C@@H](NC(=O)[C@](C)(Cc1ccccc1)NC(=O)[C@@H](NC(=O)CNC(=O)[C@H](CCC(N)=O)NC(=O)C(C)(C)NC(=O)[C@@H](N)Cc1ccc(O)cc1)[C@@H](C)O)[C@@H](C)O)[C@@H](C)CC)C(=O)N[C@@H](CCC(=O)O)C(=O)N[C@@H](Cc1ccc(O)cc1)C(=O)N[C@@H](CC(C)C)C(=O)N[C@@H](CCC(=O)O)C(=O)N[C@@H](CCC(=O)O)C(=O)NCC(=O)NCC(=O)N1CCC[C@H]1C(=O)N[C@@H](CO)C(=O)N[C@@H](CO)C(=O)NCC(=O)N[C@@H](C)C(=O)N1CCC[C@H]1C(=O)N1CCC[C@H]1C(=O)N1CCC[C@H]1C(=O)N[C@@H](CO)C(N)=O` [Example 392] (H-Y[Aib]QGT[αMeF]TSDYSILLDKK([AEEA-γGlu-C18 diacid])AQ[Aib]AFIEYLEEGGPSSGAPPPS-NH2), for which the EC50 was 28.7 nM at hGIPR [1]; 41.5 nM on hGLP-1R [2]; 611 nM on human GcgR; 0.0571 nM at hGIPR [3]; 0.253 nM on hGLP-1R [4]; 3.02 nM at hGcgR.
In the case of “Y[Aib]QGTFTSD[4Pal]SQ[αMeL]LDKK([AEEA-γGlu-C18 diacid])AQ[αMe4Pal]AFIEYLIAGGPSSGEPPPSGS-NH2 [Example 828]”, the EC50 is 14.9 nM on hGIPR [1]; 114 nM at hGLP-1R [2]; 481 nM at human GcgR; 0.149 nM at hGIPR [3] (setting [5]); 1.17 nM at hGLP-1R [4] (setting [5]); 3.58 nM on hGcgR (setting [5]).
Regarding “H-Y[Aib]QGTFTSDFS[Orn][αMeL]LDKK([AEEA-AEEA-γGlu-C18 diacid])AQ[Aib]AFIEYLLE[Aib]GPSSGAPPPEGS-NH2 [Example 194]”, the EC50 on hGIPR [1] is 19.7 nM; on hGLP-1R [2], 697 nM; at human GcgR, 813 nM; on hGIPR [3] (setting [5]) it was 0.212 nM; at hGLP-1R [4] (setting [5]), 4.69 nM; at hGcgR (setting [5]), 4.32 nM.
Turning to `CC[C@H](C)[C@H](NC(=O)[C@H](CC(C)C)NC(=O)[C@H](Cc1ccc(O)cc1)NC(=O)[C@H](CCC(=O)O)NC(=O)[C@@H](NC(=O)[C@H](Cc1ccccc1)NC(=O)[C@H](CCC(=O)O)NC(=O)[C@](C)(Cc1ccncc1)NC(=O)[C@H](CCC(N)=O)NC(=O)[C@H](C)NC(=O)[C@H](CCCCNC(=O)CC[C@H](NC(=O)CC[C@H](NC(=O)CCCCCCCCCCCCCCCCC(=O)O)C(=O)O)C(=O)O)NC(=O)[C@H](CCCN)NC(=O)[C@H](CC(=O)O)NC(=O)[C@H](CC(C)C)NC(=O)[C@](C)(CC(C)C)NC(=O)[C@H](CCCN)NC(=O)[C@H](CO)NC(=O)[C@H](Cc1ccncc1)NC(=O)[C@H](CC(=O)O)NC(=O)[C@H](CO)NC(=O)[C@@H](NC(=O)[C@H](Cc1ccccc1)NC(=O)[C@@H](NC(=O)CNC(=O)[C@H](CCC(N)=O)NC(=O)C(C)(C)NC(=O)[C@@H](N)Cc1ccc(O)cc1)[C@@H](C)O)[C@@H](C)O)[C@@H](C)CC)C(=O)N[C@@H](C)C(=O)NCC(=O)NCC(=O)N1CCC[C@H]1C(=O)N[C@@H](CO)C(=O)N[C@@H](CO)C(=O)NCC(=O)N[C@@H](C)C(=O)N1CCC[C@H]1C(=O)N1CCC[C@H]1C(=O)N1CCC[C@H]1C(=O)N[C@@H](CO)C(=O)NCC(=O)N[C@@H](CO)C(=O)N[C@@H](CCC(=O)O)C(=O)N[C@@H](CCC(=O)O)C(N)=O` [Example 1001], the EC50 at hGIPR [1] stood at 20 nM; on hGLP-1R [2], 295 nM; at human GcgR it was 1170 nM; at hGIPR [3] (setting [5]) it was 0.4 nM; at hGLP-1R [4] (setting [5]), 4.59 nM; at hGcgR (setting [5]), 22.5 nM.

For the origin of these results see patent US20240270821A1, “GIP/GLP1/GCG TRI-RECEPTOR AGONISTS AND USES THEREOF” (priority 2023, published 2024).
